Measured values: paper PMC11350758, “Development of Xanthoangelol-Derived Compounds with Membrane-Disrupting Effects against Gram-Positive Bacteria” (Antibiotics, 2024)
≈ marks a conversion by molar mass, not a printed value.

Columns and labels:
Assay type in all cases: cell-based
[1] = system: S. aureus ATCC43300; test: Cell membrane permeabilization, PI uptake assay; details: 16 μg/mL, at 20 min
Procedure: The cell membrane permeabilization of compound 9h against S. aureus ATCC43300 was assessed by PI uptake assay. PI could only pass through the impaired cell membrane and had been widely used to evaluate the cell membrane permeability. When the cell membranes were disrupted, PI entered into the cell membrane, leading to a significant improvement in fluorescence intensity. Therefore, the degree of membrane damage could be reflected by observing the fluorescence intensity in S. aureus. […] Compared with the control group, the fluorescence intensity (at 20 min) increased approximately 5-fold after the addition of 9h (16 μg/mL).
Mid-log S. aureus ATCC43300 was collected and then washed with PBS three times. Bacterial suspension (1.0 × 10^8 CFU/mL, 150 μL) was added to a black 96-well plate; following this, fluorescent dye PI (10 μM, 50 μL) was added to each well of plates, and they were preincubated in the dark for 30 min. After the incubation, the fluorescence intensity was detected every minute for 6 min using a microplate reader (λex/λem = 535 nm/615 nm). […] The fluorescence intensity was determined similarly for another 14 min. All biological experiments were repeated three times.

[2] = system: Escherichia coli ATCC25922, penicillin-susceptible strain; test: MIC, broth microdilution; details: Escherichia coli ATCC25922; read-out: MIC E. c. 25922
Procedure, shortened: (§1)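 MIC is read after 24 h at 37 °C from twofold compound dilution series in TSB broth, each combined with an equal volume of a 10^6 CFU/mL bacterial suspension per CLSI guidance.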

[3] = system: Acinetobacter baumannii ATCC19606; test: MIC, broth microdilution; details: Acinetobacter baumannii ATCC19606; read-out: MIC A. b. 19606
Procedure, shortened: as §1

[4] = system: Bacillus subtilis ATCC9372, penicillin-susceptible strain; test: MIC, broth microdilution; details: Bacillus subtilis ATCC9372; read-out: MIC B. s. 9372
Procedure, shortened: as §1

[5] = system: Staphylococcus aureus ATCC31007, penicillin-resistant strain; test: MIC, broth microdilution; details: Staphylococcus aureus ATCC31007; read-out: MIC S. a. 31007
Procedure, shortened: as §1

[6] = system: Staphylococcus epidermidis ATCC12228, erythromycin-susceptible strain; test: MIC, broth microdilution; details: Staphylococcus epidermidis ATCC12228; read-out: MIC S. e. 12228
Procedure, shortened: as §1

[7] = system: Enterococcus faecalis ATCC29212, vancomycin-susceptible strain; test: MIC, broth microdilution; details: Enterococcus faecalis ATCC29212; read-out: MIC E. f. 29212
Procedure, shortened: as §1

[8] = system: Staphylococcus aureus ATCC25923, erythromycin-susceptible strain; test: MIC, broth microdilution; details: Staphylococcus aureus ATCC25923; read-out: MIC S. a. 25923
Procedure, shortened: as §1

[9] = system: Klebsiella pneumonia ATCC10031; test: MIC, broth microdilution; details: Klebsiella pneumoniae; Klebsiella pneumonia ATCC10031; read-out: MIC K. p. 10031
Procedure, shortened: as §1

[10] = system: Pseudomonas aeruginosa ATCC27853, penicillin-susceptible strain; test: MIC, broth microdilution; details: Pseudomonas aeruginosa ATCC27853; read-out: MIC P. a. 27853
Procedure, shortened: as §1

[11] = system: Gram-negative bacteria tested; test: MIC, summary over the Gram-negative bacteria tested; details: read-out: MICs against the Gram-negative bacteria tested
Procedure: All target derivatives were assessed for their in vitro antibacterial activities using a broth microdilution assay to test their minimum inhibitory concentrations (MICs) against six Gram-positive strains (S. aureus ATCC31007, S. aureus ATCC25923, S. aureus ATCC43300, E. faecalis ATCC29212, B. subtilis ATCC9372, and S. epidermidis ATCC12228) and four Gram-negative strains (A. baumannii ATCC19606, K. pneumonia ATCC10031, E. coli ATCC25922, and P. aeruginosa ATCC27853). These compounds were also evaluated for their hemolytic activities and membrane selectivity by determining their HC50 (the concentration required to lyse 50% of red blood cells) and SI (HC50/MICs) values, respectively, and vancomycin was used as the positive drug.
MICs of the derivatives were determined by the micro broth dilution method according to the American Clinical and Laboratory Standards Institute (CLSI) standards. Briefly, 2-fold serial dilutions of target compounds were prepared in 96-well plates containing TSB broth. An equal volume of bacterial suspension (10^6 CFU/mL) was then pipetted into each well, and the mixture was incubated at 37 °C for 24 h. […] All biological experiments were repeated three times.

## CC(=O)c1c(OCCCNCCCN2CCN(C)CC2)c2c(c3c1OC(C)(CCC=C(C)C)C=C3)OC(C)(CCC=C(C)C)C=C2 (centres unmarked) [Compound 9h, 1-(2,8-Dimethyl-2,8-bis(4-methylpent-3-en-1-yl)-5-(3-((3-(4-methylpiperazin-1-yl)propyl)amino)propoxy)-2H,8H-pyrano [2,3-f]chromen-6-yl)ethan-1-one]
[1]
  increase of PI fluorescence intensity vs control group: approximately 5 fold
[2]
  MIC: 4 µg/mL (≈ 6.31 µM)
[3]
  MIC: 4 µg/mL (≈ 6.31 µM)
[4]
  MIC: 2 µg/mL (≈ 3.15 µM)
[5]
  MIC: 2 µg/mL (≈ 3.15 µM)
[6]
  MIC: 0.5 µg/mL (≈ 0.789 µM)
[7]
  MIC: 1 µg/mL (≈ 1.58 µM)
[8]
  MIC: 2 µg/mL (≈ 3.15 µM)
[9]
  MIC: 8 µg/mL (≈ 12.6 µM)
[10]
  MIC: 16 µg/mL (≈ 25.2 µM)
[11]
  MIC: 4 to 16 µg/mL (≈ 6.31 to 25.2 µM)
